Experimental data taken from US8044079B2, “Substituted oxindole derivatives, medicaments containing said derivatives and use thereof” (Abbott GmbH & Co. KG, priority 2005, dated 2011).

Molecular target: T1, human vasopressin V1b receptor (Homo sapiens, UniProt P47901)
T1 construct: expressed in transfected cells; host or cells: CHO-K1 (cell line hV1b_3H2_CHO), membrane preparation
T1 sequence (P47901 1-424): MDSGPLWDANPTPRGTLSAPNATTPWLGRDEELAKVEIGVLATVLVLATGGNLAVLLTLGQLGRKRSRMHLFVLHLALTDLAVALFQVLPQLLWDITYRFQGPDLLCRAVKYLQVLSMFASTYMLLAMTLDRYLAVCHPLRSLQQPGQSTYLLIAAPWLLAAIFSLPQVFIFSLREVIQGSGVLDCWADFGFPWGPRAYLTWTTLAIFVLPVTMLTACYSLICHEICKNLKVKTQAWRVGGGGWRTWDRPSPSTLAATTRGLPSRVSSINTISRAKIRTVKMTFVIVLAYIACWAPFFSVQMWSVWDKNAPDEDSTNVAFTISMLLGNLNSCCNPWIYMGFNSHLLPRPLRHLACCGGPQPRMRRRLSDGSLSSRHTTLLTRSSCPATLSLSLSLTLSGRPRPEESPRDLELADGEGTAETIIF
Experiment: Vasopressin V1b receptor binding test
Conditions: membranes of CHO-K1 cells with human V1b receptor, displacement of 1.5 nM 3H-AVP; for compounds with more than one stereogenic center the diastereomer with greater affinity
In short: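 Affinity constants (Ki) came from nonlinear regression of triplicate scintillation counts after filtration separated bound from free radioligand. Compounds competed at human V1b membranes for 60 min, room temperature, in pH 7.4 tris/MgCl2/BSA buffer with 2% DMSO; 1 μM AVP defined nonspecific binding.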

Row | SMILES | Ki [µM]
1 | CCCNCc1ccc(OC)c(C2(N3C[C@H](O)C[C@H]3c3ncco3)C(=O)N(S(=O)(=O)c3ccc(OC)cc3)c3ccc(Cl)cc32)c1 (stereo partly drawn) [Example 115, 5-Chloro-3-((2S,4R)-4-hydroxy-2-oxazol-2-yl-pyrrolidin-1-yl)-1-(4-methoxybenzenesulfonyl)-3-(2-methoxy-5-(propylaminomethyl)phenyl)-1,3-dihydroindol-2-one] | < 0.01
2 | CCCNCc1ccc(OC)c(C2(N3CCC[C@H]3c3ncco3)C(=O)N(S(=O)(=O)c3ccc(OC)cc3)c3ccc(Cl)cc32)c1 (stereo partly drawn) [Example 116, 5-Chloro-1-(4-methoxybenzenesulfonyl)-3-(2-methoxy-5-(propylaminomethyl)phenyl)-3-((S)-2-oxazol-2-yl-pyrrolidin-1-yl)-1,3-dihydroindol-2-one] | < 0.01
3 | COc1ccc(S(=O)(=O)N2C(=O)C(c3cc(CN(C)C)ccc3OC)(N3CCCC3c3nccs3)c3cc(Cl)ccc32)cc1 (stereo not drawn) [Example 117, 5-Chloro-3-(5-dimethylaminomethyl-2-methoxyphenyl)-1-(4-methoxybenzenesulfonyl)-3-(2-thiazol-2-yl-pyrrolidin-1-yl)-1,3-dihydroindol-2-one] | 0.01 to 0.1
4 | COc1ccc(S(=O)(=O)N2C(=O)C(c3cc(CN4CCCC4)ccc3OC)(N3CCCC3c3nccs3)c3cc(Cl)ccc32)cc1 (stereo not drawn) [Example 118, 5-Chloro-1-(4-methoxybenzenesulfonyl)-3-(2-methoxy-5-(pyrrolidin-1-ylmethyl)phenyl)-3-(2-thiazol-2-yl-pyrrolidin-1-yl)-1,3-dihydroindol-2-one] | 0.01 to 0.1
5 | COc1ccc(S(=O)(=O)N2C(=O)C(c3cc(CN4CCN(C)CC4)ccc3OC)(N3CCCC3c3nccs3)c3cc(Cl)ccc32)cc1 (stereo not drawn) [Example 119, 5-Chloro-1-(4-methoxybenzenesulfonyl)-3-[2-methoxy-5-(4-methylpiperazin-1-ylmethyl)phenyl]-3-(2-thiazol-2-yl-pyrrolidin-1-yl)-1,3-dihydroindol-2-one] | 0.01 to 0.1
6 | CNCc1ccc(OC)c(C2(N3CCCC3c3ccccn3)C(=O)N(S(=O)(=O)c3ccc(OC)cc3)c3ccc(Cl)cc32)c1 (stereo not drawn) [Example 120, 5-Chloro-1-(4-methoxybenzenesulfonyl)-3-(2-methoxy-5-methylaminomethylphenyl)-3-(2-pyridin-2-yl-pyrrolidin-1-yl)-1,3-dihydroindol-2-one] | 0.1 to 1
7 | COc1ccc(S(=O)(=O)N2C(=O)C(c3cc(CN4CCNCC4)ccc3OC)(N3CCCC3c3nccs3)c3cc(Cl)ccc32)cc1 (stereo not drawn) [Example 121, 5-Chloro-1-(4-methoxybenzenesulfonyl)-3-(2-methoxy-5-(piperazin-1-ylmethyl)phenyl)-3-(2-thiazol-2-yl-pyrrolidin-1-yl)-1,3-dihydroindol-2-one] | 0.01 to 0.1
8 | COc1ccc(S(=O)(=O)N2C(=O)C(c3cc(CN(C)C)ccc3OC)(N3CCCC3c3ccccn3)c3cc(Cl)ccc32)cc1 (stereo not drawn) [Example 122, 5-Chloro-3-(5-dimethylaminomethyl-2-methoxyphenyl)-1-(4-methoxybenzenesulfonyl)-3-(2-pyridin-2-yl-pyrrolidin-1-yl)-1,3-dihydroindol-2-one] | 0.1 to 1
9 | CCCNCc1ccc(OC)c(C2(N3CCCC3c3ccccn3)C(=O)N(S(=O)(=O)c3ccc(OC)cc3)c3ccc(Cl)cc32)c1 (stereo not drawn) [Example 123, 5-Chloro-1-(4-methoxybenzenesulfonyl)-3-(2-methoxy-5-propylaminomethylphenyl)-3-(2-pyridin-2-yl-pyrrolidin-1-yl)-1,3-dihydroindol-2-one] | 0.1 to 1
10 | COc1ccc(S(=O)(=O)N2C(=O)C(c3cc(CN4CCN(C)CC4)ccc3OC)(N3CCCC3c3ccccn3)c3cc(Cl)ccc32)cc1 (stereo not drawn) [Example 124, 5-Chloro-1-(4-methoxybenzenesulfonyl)-3-[2-methoxy-5-(4-methylpiperazin-1-ylmethyl)phenyl]-3-(2-pyridin-2-yl-pyrrolidin-1-yl)-1,3-dihydroindol-2-one] | 0.01 to 0.1
11 | COc1ccc(S(=O)(=O)N2C(=O)C(c3cc(CN4CCNC(=O)C4)ccc3OC)(N3CCC[C@H]3c3ncco3)c3cc(Cl)ccc32)cc1 (stereo partly drawn) [Example 125, 5-Chloro-1-(4-methoxybenzenesulfonyl)-3-[2-methoxy-5-(3-oxopiperazin-1-ylmethyl)phenyl]-3-((S)-2-oxazol-2-yl-pyrrolidin-1-yl)-1,3-dihydroindol-2-one] | 0.01 to 0.1
12 | COc1ccc(S(=O)(=O)N2C(=O)C(c3cc(CN4CCNCC4)ccc3OC)(N3CCCC3c3ccccn3)c3cc(Cl)ccc32)cc1 (stereo not drawn) [Example 126, 5-Chloro-1-(4-methoxybenzenesulfonyl)-3-(2-methoxy-5-piperazin-1-ylmethylphenyl)-3-(2-pyridin-2-yl-pyrrolidin-1-yl)-1,3-dihydroindol-2-one] | 0.1 to 1
13 | COc1ccc(S(=O)(=O)N2C(=O)C(c3ccc(CN4CCN(CCO)CC4)cc3OC)(N3CCC[C@H]3c3ncco3)c3cc(Cl)ccc32)cc1 (stereo partly drawn) [Example 127, 5-Chloro-3-{4-[4-(2-hydroxyethyl)piperazin-1-ylmethyl]-2-methoxyphenyl}-1-(4-methoxybenzenesulfonyl)-3-((S)-2-oxazol-2-yl-pyrrolidin-1-yl)-1,3-dihydroindol-2-one] | < 0.01
14 | COc1ccc(S(=O)(=O)N2C(=O)C(N[C@@H](C)c3ncco3)(c3cc(CN4CCN(C)CC4)ccc3OC)c3cc(Cl)ccc32)cc1 (stereo partly drawn) [Example 128, 5-Chloro-1-(4-methoxybenzenesulfonyl)-3-[2-methoxy-5-(4-methylpiperazin-1-ylmethyl)phenyl]-3-((S)-1-oxazol-2-yl-ethylamino)-1,3-dihydroindol-2-one] | < 0.01
15 | CNCc1ccc(OC)c(C2(NCc3ncco3)C(=O)N(S(=O)(=O)c3ccc(OC)cc3)c3ccc(Cl)cc32)c1 (stereo not drawn) [Example 129, 5-Chloro-1-(4-methoxybenzenesulfonyl)-3-(2-methoxy-5-methylaminomethylphenyl)-3-[(oxazol-2-ylmethyl)amino]-1,3-dihydroindol-2-one] | 0.01 to 0.1
16 | COc1ccc(S(=O)(=O)N2C(=O)C(c3cc(CNCC(F)(F)F)ccc3OC)(N3CCC[C@H]3c3ncco3)c3cc(Cl)ccc32)cc1 (stereo partly drawn) [Example 130, 5-Chloro-1-(4-methoxybenzenesulfonyl)-3-{2-methoxy-5-[(2,2,2-trifluoroethylamino)methyl]phenyl}-3-((S)-2-oxazol-2-yl-pyrrolidin-1-yl)-1,3-dihydroindol-2-one] | 0.01 to 0.1
17 | CCNCc1ccc(C2(N3CCC[C@H]3c3ncco3)C(=O)N(S(=O)(=O)c3ccc(OC)cc3)c3ccc(Cl)cc32)c(OC)c1 (stereo partly drawn) [Example 131, 5-Chloro-3-(4-ethylaminomethyl-2-methoxyphenyl)-1-(4-methoxybenzenesulfonyl)-3-((S)-2-oxazol-2-yl-pyrrolidin-1-yl)-1,3-dihydroindol-2-one] | 0.01 to 0.1
18 | CCCNCc1ccc(OC)c(C2(N3CCCC3c3nccs3)C(=O)N(S(=O)(=O)c3ccc(OC)cc3)c3ccc(Cl)cc32)c1 (stereo not drawn) [Example 132, 5-Chloro-1-(4-methoxybenzenesulfonyl)-3-(2-methoxy-5-propylaminomethylphenyl)-3-(2-thiazol-2-yl-pyrrolidin-1-yl)-1,3-dihydroindol-2-one] | 0.01 to 0.1
19 | COc1ccc(S(=O)(=O)N2C(=O)C(N[C@@H](C)c3ncco3)(c3cc(CN(C)C)ccc3OC)c3cc(Cl)ccc32)cc1 (stereo partly drawn) [Example 133, 5-Chloro-3-(5-dimethylaminomethyl-2-methoxyphenyl)-1-(4-methoxybenzenesulfonyl)-3-((S)-1-oxazol-2-yl-ethylamino)-1,3-dihydroindol-2-one] | 0.01 to 0.1
20 | CCCNCc1ccc(OC)c(C2(N[C@@H](C)c3ncco3)C(=O)N(S(=O)(=O)c3ccc(OC)cc3)c3ccc(Cl)cc32)c1 (stereo partly drawn) [Example 134, 5-Chloro-1-(4-methoxybenzenesulfonyl)-3-(2-methoxy-5-propylaminomethylphenyl)-3-((S)-1-oxazol-2-yl-ethylamino)-1,3-dihydroindol-2-one] | 0.01 to 0.1
21 | COc1ccc(S(=O)(=O)N2C(=O)C(N[C@@H](C)c3ncco3)(c3cc(CN4CCNCC4)ccc3OC)c3cc(Cl)ccc32)cc1 (stereo partly drawn) [Example 135, 5-Chloro-1-(4-methoxybenzenesulfonyl)-3-(2-methoxy-5-(piperazin-1-ylmethyl)phenyl)-3-((S)-1-oxazol-2-yl-ethylamino)-1,3-dihydroindol-2-one] | < 0.01
22 | COc1ccc(S(=O)(=O)N2C(=O)C(c3ccc(CNC(C)C)cc3OC)(N3CCC[C@H]3c3ncco3)c3cc(Cl)ccc32)cc1 (stereo partly drawn) [Example 136, 5-Chloro-3-[4-(isopropylaminomethyl)-2-methoxyphenyl]-1-(4-methoxybenzenesulfonyl)-3-((S)-2-oxazol-2-yl-pyrrolidin-1-yl)-1,3-dihydroindol-2-one] | 0.01 to 0.1
23 | COc1ccc(S(=O)(=O)N2C(=O)C(c3ccc(CNCCO)cc3OC)(N3CCC[C@H]3c3ncco3)c3cc(Cl)ccc32)cc1 (stereo partly drawn) [Example 137, 5-Chloro-3-{4-[(2-hydroxyethylamino)methyl]-2-methoxyphenyl}-1-(4-methoxybenzenesulfonyl)-3-((S)-2-oxazol-2-yl-pyrrolidin-1-yl)-1,3-dihydroindol-2-one] | 0.01 to 0.1
24 | COc1ccc(S(=O)(=O)N2C(=O)C(c3ccc(CN4CCNC(=O)C4)cc3OC)(N3CCC[C@H]3c3ncco3)c3cc(Cl)ccc32)cc1 (stereo partly drawn) [Example 138, 5-Chloro-1-(4-methoxybenzenesulfonyl)-3-[2-methoxy-4-(3-oxopiperazin-1-ylmethyl)phenyl]-3-((S)-2-oxazol-2-yl-pyrrolidin-1-yl)-1,3-dihydroindol-2-one] | 0.01 to 0.1
